Experimental data from BigSolDB 2.1.

CC1=NNC(=O)N(/N=C/c2cccnc2)C1
solubility (mole fraction)
Settings | 278.15 K | 283.15 K | 288.15 K | 293.15 K | 298.15 K | 303.15 K | 308.15 K | 313.15 K | 318.15 K
in 1,4-dioxane | – | – | 0.000462 | 0.00054 | 0.000629 | 0.000728 | 0.000842 | 0.000964 | 0.0011
in DMF | 0.0031 | 0.00347 | 0.00398 | 0.00451 | 0.00515 | 0.00582 | 0.00656 | 0.00738 | 0.00832
in DMSO | – | – | – | 0.00762 | 0.00862 | 0.00985 | 0.0112 | 0.0126 | 0.0144
in NMP | 0.00163 | 0.00189 | 0.0022 | 0.00255 | 0.00295 | 0.00338 | 0.00389 | 0.00444 | 0.00506
in isopropanol | 0.000198 | 0.000232 | 0.00028 | 0.000331 | 0.000391 | 0.000461 | 0.00054 | 0.000625 | 0.000729
in n-butanol | 0.000159 | 0.00019 | 0.000229 | 0.000277 | 0.000332 | 0.000389 | 0.00046 | 0.000537 | 0.000635
